# Assay results as given in patent publication US9522160B2, “Ophthalmic formulations” (Inotek Pharmaceuticals Corporation, priority 2013, dated 2016).
# How the values were obtained:
# [1] = Stability study of a 3% suspension of Compound A (Formulation 3) spiked with latanoprost; latanoprost and latanoprost acid by HPLC; type: physicochemical
# Protocol: Latanoprost is added, usually aseptically, to the Formulation after the curing step or after all other formulation steps as described above. For example latanoprost can be spiked into Formulation 3 with Compound A at 3.0% (Example 5 above) to prepare a unit dosage of a combination of Compound A with a concentration of latanoprost of about 50 ug/ml. A stability study has been done to study the stability of a combination of a suspension of Compound A as Formulation 3 and latanoprost. The stability study is described below.
# A 10 mL sample of a 3% suspension of Compound A spiked with latanoprost at 50 μg/mL was used for the stability study. Ethanol was used to disperse the latanoprost into the suspension of Compound A. The final solution ethanol target was 0.5% so for 10 mLs of the suspension, the latanoprost was dissolved in 50 μL of ethanol.
# For 10 mls of the suspension, 0.5 mg of latanoprost was needed for the spike. A 50 μL sample of a commercial solution containing 10 mg/mL of latanoprost in methyl acetate was taken and the solvent removed under vacuum. The residue was taken up in 50 μL of ethanol.
# A 9.950 mL sample of the suspension, taken with a 5 mL autopipette (2×4.975 mL) was spiked with the ethanol solution with mixing.
# After taking a 500 μL T0 sample, the bulk solution was divided into 3 containers that were set down at 2-8° C., 25° C./60RH and 40° C./75RH.
# The solution in this case would be 0.5 mg in 8.5 mL volume or […] of latanoprost in the suspension. Therefore for analysis, the theoretical latanoprost in solution after a 50% dilution with acetonitrile was 29.4 μg/mL.
# A calibration curve of latanoprost acid was also prepared using the commercial solution that contained 10 mg/mL in methyl acetate.
# In contrast to the latanoprost standards, these solutions were prepared in 100% acetonitrile.
# The solutions injected were 5, 2.5 and 1.25 μg/mL solutions.
# The stability samples were prepared by vortex mixing and sonication of the suspension followed by a 50% dilution with acetonitrile. After centrifugation the supernatant was injected on the HPLC.
# The assay results are shown below in Table 2 where the calculated concentration is shown in μg/mL. (The theory concentration is 29.4 μg/ml),
# 4 week samples. For the 4 week 25° C./60 and 40° C./75 samples the calculated latanoprost acid values were 0.4 and 0.3 μg/mL respectively. The impurities increased slightly at 3 months. For the 3 month 25° C./60 and 40° C./75 samples the calculated latanoprost acid values were 0.63 and 3.92 μg/mL respectively.
# Except for the 40° C./75 sample at 3 months the values for all other samples were below the calibration curve concentrations and therefore below the detection level of the method.
# [2] = tested on: normotensive monkeys; details: Compound A in combination with latanoprost; cited from earlier work
# [3] = tested on: retinal ganglion cells; details: formulation of Compound A; cited from earlier work
smiles,measurement,setting,value
O=C(O)CCC/C=C\C[C@@H]1[C@@H](CC[C@@H](O)CCc2ccccc2)[C@H](O)C[C@@H]1O [latanoprost acid],latanoprost acid present in stability sample,"[1]; 2-8° C., 4 week sample",No latanoprost acid was present
same,latanoprost acid present in stability sample,[1]; 2 week samples,No latanoprost acid was present
same,latanoprost acid present in stability sample,[1]; T0 sample,No latanoprost acid was present
"CC(C)OC(=O)CCC/C=C\C[C@@H]1[C@@H](CC[C@@H](O)CCc2ccccc2)[C@H](O)C[C@@H]1O [Latanoprost, latanoprost]",Latanoprost Assay Results,"[1]; 2-8° C., 2 Weeks",32.29 µg/mL
same,Latanoprost Assay Results (% T0),"[1]; 2-8° C., 2 Weeks",109 % T0
same,Latanoprost Assay Results (% T0),"[1]; 2-8° C., 3 Months",121.1 % T0
same,Latanoprost Assay Results,"[1]; 2-8° C., 3 Months, sample contained some latanoprost impurities",35.63 µg/mL
same,Latanoprost Assay Results,"[1]; 2-8° C., 4 Weeks",33.97 µg/mL
same,Latanoprost Assay Results (% T0),"[1]; 2-8° C., 4 Weeks",115 % T0
same,Latanoprost Assay Results,"[1]; 25° C./60, 2 Weeks",32.37 µg/mL
same,Latanoprost Assay Results (% T0),"[1]; 25° C./60, 2 Weeks",110 % T0
same,Latanoprost Assay Results (% T0),"[1]; 25° C./60, 3 Months",103.5 % T0
same,Latanoprost Assay Results,"[1]; 25° C./60, 3 Months, sample contained some latanoprost impurities",30.42 µg/mL
same,Latanoprost Assay Results (% T0),"[1]; 25° C./60, 4 Weeks",112 % T0
same,Latanoprost Assay Results,"[1]; 25° C./60, 4 Weeks, sample contained some latanoprost impurities",32.90 µg/mL
same,Latanoprost Assay Results,"[1]; 40° C./75, 2 Weeks",31.35 µg/mL
same,Latanoprost Assay Results (% T0),"[1]; 40° C./75, 2 Weeks",106 % T0
same,Latanoprost Assay Results (% T0),"[1]; 40° C./75, 3 Months",89.0 % T0
same,Latanoprost Assay Results,"[1]; 40° C./75, 3 Months, sample contained some latanoprost impurities",26.18 µg/mL
same,Latanoprost Assay Results (% T0),"[1]; 40° C./75, 4 Weeks",101 % T0
same,Latanoprost Assay Results,"[1]; 40° C./75, 4 Weeks, sample contained some latanoprost impurities",29.90 µg/mL
same,Latanoprost Assay Results,"[1]; T0, 3% Compound A suspension spiked with latanoprost, 50% dilution with acetonitrile, theory concentration 29.4 μg/ml",29.49 µg/mL
"O=[N+]([O-])OC[C@H]1O[C@@H](n2cnc3c(NC4CCCC4)ncnc32)[C@H](O)[C@@H]1O [Compound A, ((2R,3S,4R,5R)-5-(6-(cyclopentylamino)-9H-purin-9-yl)-3,4-dihydroxytetrahydrofuran-2-yl)methyl nitrate]",IOP reduction,[2],significant IOP reduction
same,neuroprotective effect on retinal ganglion cells,[3],neuroprotective effect
